Test results published in patent US11717508B2, “Compounds, compositions, and methods for inhibiting bacterial growth” (priority 2016, dated 2023).
Several values for one entry are separate records, joined by “and”; a condition that tells them apart may be missing. Identical values can stand only once. Like-named read-outs stand apart in the source and are kept apart here.

Legend:
DosRST regulon = format: cell-based; settings: 40 μM, 6 days
DosS = format: biochemical, Mycobacterium tuberculosis
DosT = DosT (Mycobacterium tuberculosis, UniProt P9WGK1, G115L); format: biochemical
CDC1551(ΔdosR) mutant = format: cell-based; settings: for log2 Fold change: DosR mutant, HC101A vs DMSO; for Counts per million (CPM): DosR mutant treated with HC101A, replicates 1, 2

C[C@@H]1CC[C@H]2[C@@H](C)C(=O)O[C@@H]3O[C@]4(C)CC[C@@H]1[C@]32OO4 [HC101A, artemisinin, reference compound]
genes inhibited that are not modulated in the CDC1551(ΔdosR) mutant (DosRST regulon): 157 genes
genes downregulated by compound that are also downregulated in the CDC1551(ΔdosR) mutant (DosRST regulon; >2-fold, p<0.05): 85 genes
oxidation of DosS (E87L) and DosS (G117L) proteins by artemisinin (DosS): resistant to oxidation
response of DosT (G115L) protein to artemisinin (DosT): exhibits artemisinin resistance
downregulated genes in CDC1551(ΔdosR) mutant treated with compound (CDC1551(ΔdosR) mutant; 40 μM, 6 days, >2-fold, p<0.05): 69 genes
log2 Fold change (CDC1551(ΔdosR) mutant; gene MT0169 Rv0160c PE): −1.408
log2 Fold change (CDC1551(ΔdosR) mutant; gene MT0258 Rv0244c fadE5): −1.069
log2 Fold change (CDC1551(ΔdosR) mutant; gene MT0273 Rv0260c): −1.854
Counts per million (CPM) (CDC1551(ΔdosR) mutant; gene MT0292 Rv0280 PPE): 31.79 CPM and 16.54 CPM
log2 Fold change (CDC1551(ΔdosR) mutant; gene MT0292 Rv0280 PPE): −1.247
Counts per million (CPM) (CDC1551(ΔdosR) mutant; gene MT0329 Rv0315): 113.2 CPM and 189.1 CPM
log2 Fold change (CDC1551(ΔdosR) mutant; gene MT0329 Rv0315): −1.246
Counts per million (CPM) (CDC1551(ΔdosR) mutant; gene MT0456 Rv0440 groEL2): 5,842.91 CPM and 4,666.11 CPM
log2 Fold change (CDC1551(ΔdosR) mutant; gene MT0456 Rv0440 groEL2): −1.245
Counts per million (CPM) (CDC1551(ΔdosR) mutant; gene MT0483 Rv0467 aceA): 884.5 CPM and 561.1 CPM
log2 Fold change (CDC1551(ΔdosR) mutant; gene MT0483 Rv0467 aceA): −1.499
Counts per million (CPM) (CDC1551(ΔdosR) mutant; gene MT0484): 179.4 CPM and 142.8 CPM
log2 Fold change (CDC1551(ΔdosR) mutant; gene MT0484): −1.278
Counts per million (CPM) (CDC1551(ΔdosR) mutant; gene MT0493 Rv0475): 790.8 CPM and 938.1 CPM
log2 Fold change (CDC1551(ΔdosR) mutant; gene MT0493 Rv0475): −1.077
log2 Fold change (CDC1551(ΔdosR) mutant; gene MT0532 Rv0511 cysG): 1.218
log2 Fold change (CDC1551(ΔdosR) mutant; gene MT0533 Rv0512 hemB): 1.276
log2 Fold change (CDC1551(ΔdosR) mutant; gene MT0583 Rv0557): 1.113
log2 Fold change (CDC1551(ΔdosR) mutant; gene MT0586 Rv0560c): 1.95
log2 Fold change (CDC1551(ΔdosR) mutant; gene MT0658 Rv0630c recB): 1.021
log2 Fold change (CDC1551(ΔdosR) mutant; gene MT0705 Rv0676c mmpL5): 1.881
log2 Fold change (CDC1551(ΔdosR) mutant; gene MT0706 Rv0677c mmpS5): 1.662
log2 Fold change (CDC1551(ΔdosR) mutant; gene MT0706.1 Rv0678): 1.572
log2 Fold change (CDC1551(ΔdosR) mutant; gene MT0772.5 Rv0747 PE_PGRS): 1.043
log2 Fold change (CDC1551(ΔdosR) mutant; gene MT0808 Rv0784): 2.116
Counts per million (CPM) (CDC1551(ΔdosR) mutant; gene MT0901 Rv0878c PPE): 18.57 CPM and 12.14 CPM
log2 Fold change (CDC1551(ΔdosR) mutant; gene MT0901 Rv0878c PPE): −1.047
Counts per million (CPM) (CDC1551(ΔdosR) mutant; gene MT0908 Rv0885): 437.9 CPM and 441.4 CPM
log2 Fold change (CDC1551(ΔdosR) mutant; gene MT0908 Rv0885): −3.4
Counts per million (CPM) (CDC1551(ΔdosR) mutant; gene MT0909 Rv0886 fprB): 103.6 CPM and 55.4 CPM
log2 Fold change (CDC1551(ΔdosR) mutant; gene MT0909 Rv0886 fprB): −3.149
Counts per million (CPM) (CDC1551(ΔdosR) mutant; gene MT0911 Rv0888): 9.416 CPM and 8.907 CPM
log2 Fold change (CDC1551(ΔdosR) mutant; gene MT0911 Rv0888): −1.599
Counts per million (CPM) (CDC1551(ΔdosR) mutant; gene MT0915.1): 9.867 CPM and 9.495 CPM
log2 Fold change (CDC1551(ΔdosR) mutant; gene MT0915.1): −1.202
log2 Fold change (CDC1551(ΔdosR) mutant; gene MT0956 Rv0929 pstC2): 1.037
Counts per million (CPM) (CDC1551(ΔdosR) mutant; gene MT1019 Rv0990c): 62.69 CPM and 83.49 CPM
log2 Fold change (CDC1551(ΔdosR) mutant; gene MT1019 Rv0990c): −1.236
Counts per million (CPM) (CDC1551(ΔdosR) mutant; gene MT1020): 529.4 CPM and 1,032.48 CPM
log2 Fold change (CDC1551(ΔdosR) mutant; gene MT1020): −1.261
log2 Fold change (CDC1551(ΔdosR) mutant; gene MT1073 Rv1043c): 1.069
log2 Fold change (CDC1551(ΔdosR) mutant; gene MT1123 Rv1091 PE_PGRS): 1.015
Counts per million (CPM) (CDC1551(ΔdosR) mutant; gene MT1224 Rv1187 rocA): 50.05 CPM and 29.85 CPM
log2 Fold change (CDC1551(ΔdosR) mutant; gene MT1224 Rv1187 rocA): −1.028
Counts per million (CPM) (CDC1551(ΔdosR) mutant; gene MT1233 Rv1195 PE): 282.5 CPM and 86.53 CPM
log2 Fold change (CDC1551(ΔdosR) mutant; gene MT1233 Rv1195 PE): −1.537
log2 Fold change (CDC1551(ΔdosR) mutant; gene MT1296 Rv1257c): 1.198
log2 Fold change (CDC1551(ΔdosR) mutant; gene MT1297 Rv1258c): 1.744
log2 Fold change (CDC1551(ΔdosR) mutant; gene MT1303 Rv1265): 1.132
Counts per million (CPM) (CDC1551(ΔdosR) mutant; gene MT1385): 26.31 CPM and 28.68 CPM
log2 Fold change (CDC1551(ΔdosR) mutant; gene MT1385): −1.733
log2 Fold change (CDC1551(ΔdosR) mutant; gene MT1424 Rv1380 pyrB): 1.245
log2 Fold change (CDC1551(ΔdosR) mutant; gene MT1425 Rv1381 pyrC): 1.176
log2 Fold change (CDC1551(ΔdosR) mutant; gene MT1426): 1.289
log2 Fold change (CDC1551(ΔdosR) mutant; gene MT1427 Rv1383 car A): 1.005
log2 Fold change (CDC1551(ΔdosR) mutant; gene MT1428 Rv1384 carB): 1.115
log2 Fold change (CDC1551(ΔdosR) mutant; gene MT1429 Rv1385 pyrF): 1.522
Counts per million (CPM) (CDC1551(ΔdosR) mutant; gene MT1430 Rv1386 PE): 77.39 CPM and 47.87 CPM
log2 Fold change (CDC1551(ΔdosR) mutant; gene MT1430 Rv1386 PE): −1.005
Counts per million (CPM) (CDC1551(ΔdosR) mutant; gene MT1431 Rv1387 PPE): 317.7 CPM and 543.6 CPM
log2 Fold change (CDC1551(ΔdosR) mutant; gene MT1431 Rv1387 PPE): −1.201
Counts per million (CPM) (CDC1551(ΔdosR) mutant; gene MT1484 Rv1439c): 6.965 CPM and 6.852 CPM
log2 Fold change (CDC1551(ΔdosR) mutant; gene MT1484 Rv1439c): −1.508
Counts per million (CPM) (CDC1551(ΔdosR) mutant; gene MT1585.1): 293.5 CPM and 393.7 CPM
log2 Fold change (CDC1551(ΔdosR) mutant; gene MT1585.1): −2.24
Counts per million (CPM) (CDC1551(ΔdosR) mutant; gene MT1586 Rv535 Rv1535): 44.69 CPM and 38.96 CPM
log2 Fold change (CDC1551(ΔdosR) mutant; gene MT1586 Rv535 Rv1535): −1.971
log2 Fold change (CDC1551(ΔdosR) mutant; gene MT1620 Rv1569 bioF): 1.182
Counts per million (CPM) (CDC1551(ΔdosR) mutant; gene MT1627): 22.44 CPM and 21.44 CPM
log2 Fold change (CDC1551(ΔdosR) mutant; gene MT1627): −1.25
Counts per million (CPM) (CDC1551(ΔdosR) mutant; gene MT1628 Rv1592c): 334.3 CPM and 332.3 CPM
log2 Fold change (CDC1551(ΔdosR) mutant; gene MT1628 Rv1592c): −1.21
Counts per million (CPM) (CDC1551(ΔdosR) mutant; gene MT1736): 181.3 CPM and 300.2 CPM
